# Results taken from EP2664616A1, “Hydantoin and thiohydantoin derivatives as antiviral drugs” (priority 2012, dated 2013).
# Tested on: HCV replicon Luc Neo ET
# Assay: HCV replication inhibition assay (replicon assay, luciferase reporter)
# Assay type: cell-based
# Conditions: Hepatitis C virus; Huh-7 cell lines containing HCV replicon Luc Neo ET; 72 hours with compound; 1 % DMSO; firefly luciferase reporter; concentration that produces 50 % of replication inhibition; read-out: EC50 Replicon LucneoET
# Method: The compounds according to the present invention were tested for their ability to inhibit HCV replication as follows:
# Huh-7 cell lines containing HCV replicon Luc Neo ET (Reblikon) were maintained in DMEM supplemented with 10% SVF, 2 mM glutamine, and 1 X NEAA, 100 U / ml penicillin, and 100 µg / ml streptomycine. Cells were maintained in medium supplemented with 0.5 mg/ml G418, at 37°C and 5% CO2 in a humidified atmosphere. Cells were dissociated at sub confluence with trypsin EDTA 1X.
# Replicon Luc Neo ET is bicistronic expression constructs (Lohmann et al, 1999, Science 285, 110-113). In brief, the structural genes of the HCV genome were replaced by heterologous sequences; the gene encoding the neomycin phosphotransferase (NPT) and the internal ribosome entry site (IRES) of the encephalomyocarditis virus (EMCV). The bicistronic construct is therefore composed of the following elements: HCV-IRES nucleotides 1-389 for Luc Neo ET, the NPT gene, the EMCV-IRES directing translation of downstream HCV sequences from NS2 or NS3 up to the authentic 3' end of the genome. HCV Polyprotein of Luc Neo ET replicon harbours the cell culture adaptive mutations E1202G, T1280I, K1846T. G418-resistance is only possible with cells containing high amounts of replicon.
# Cells were dissociated the day before addition of compounds and seeded in 96 well-plates at a final concentration of 27 777.77 cells.ml^-1.cm^-2 in 90µl final volume of culture medium per well and were maintained at 37°C and 5% CO2 in a humidified atmosphere for 24 hours. 10 µl of compounds to be tested were added 24 hours after seeding. Final concentration of DMSO was 1 %. Cells were incubated in the presence of compounds for 72 hours after which expression of firefly luciferase reporter gene was quantified. Briefly, culture medium was removed and cells were lysed by addition of 100 µl of lysis buffer containing 125 mM Tris Phosphate ph 7.8, 10 mM EDTA, 5 mM DTT, 50 % glycerol and 5 % Triton. Plates were vortexed 10 min at 1300 rpm. 100µl of luciferin solution 1X were added to each well. Luciferin solution contained 40 mM Tris Phosphate ph 7.8, 0.2 mM EDTA, 67 mM DTT, 2.14 mM MgCl2, 5.4 mM MgSO4, 4.7 x 10^-4 M luciferin, 5.3 x 10^-4 M ATP and 2.7 x 10^-4 M Acetyl co enzyme A. Luminescence was immediately measured with Berthold Microlumat Plus LB 96V luminometer with an integration of 1 sec. Inhibition was calculated using the formula: % inhibition = 1-[(RLUsample-RLUbackground)/(RLUsignal-RLUbackground)].
# The Table 1 below illustrates data on the biological activity of compounds of the present invention. Results are expressed as EC50 which is the concentration that produces 50 % of replication inhibition. Table 1. HCV replication inhibition assay
row,Molecule,EC50 [µM]
1,"COc1ccc(CCN2C(=S)N(c3ccc(F)cc3)C(=O)C2CC(=O)Nc2ccc(N3CCCC3=O)cc2)cc1 (stereo not drawn) [Example 87, 2-[1-(4-fluorophenyl)-3-[2-(4-methoxyphenyl)ethyl]-5-oxo-2-sulfanylideneimidazolidin-4-yl]-N-[4-(2-oxopyrrolidin-1-yl)phenyl]acetamide]",< 5
2,"COc1ccc(CCN2C(=S)N(c3ccc(F)cc3)C(=O)C2CC(=O)Nc2ncc(OC)s2)cc1 (stereo not drawn) [Example 88, 2-[1-(4-Fluorophenyl)-3-[2-(4-methoxyphenyl)ethyl]-5-oxo-2-sulfanylideneimidazolidin-4-yl]-N-(5-methoxy-1,3-thiazol-2-yl)acetamide]",< 0.5
3,"COc1ccc(CCN2C(=S)N(c3ccccc3)C(=O)/C2=C\C(=O)Nc2ccc(N(C)C)cc2)cc1 [Example 90, N-[4-(dimethylamino)phenyl]-2-[(4E)-3-[2-(4-methoxyphenyl)ethyl]-5-oxo-1-phenyl-2-sulfanylideneimidazolidin-4-ylidene]acetamide]",< 0.5
4,"COc1ccc(CCN2C(=S)N(c3ccc(F)cc3)C(=O)C2CC(=O)Nc2ccc(O)cc2)cc1 (stereo not drawn) [Example 91, 2-[1-(4-fluorophenyl)-3-[2-(4-methoxyphenyl)ethyl]-5-oxo-2-sulfanylideneimidazolidin-4-yl]-N-(4-hydroxyphenyl)acetamide]",< 0.5
5,"COc1ccc(CCCN2C(=S)N(c3ccc(F)cc3)C(=O)C2CC(=O)Nc2ccc(OC)cn2)cc1 (stereo not drawn) [Example 92, 2-[1-(4-fluorophenyl)-3-[3-(4-methoxyphenyl)propyl]-5-oxo-2-sulfanylideneimidazolidin-4-yl]-N-(5-methoxypyridin-2-yl)acetamide]",< 0.5
6,"COc1ccc(CCCCN2C(=S)N(c3ccc(F)cc3)C(=O)C2CC(=O)Nc2ccc(OC)cn2)cc1 (stereo not drawn) [Example 93, 2-[1-(4-fluorophenyl)-3-[4-(4-methoxyphenyl)butyl]-5-oxo-2-sulfanylideneimidazolidin-4-yl]-N-(5-methoxypyridin-2-yl)acetamide]",< 0.5

# Same assay, conditions: Huh-7 cell lines containing HCV replicon Luc Neo ET; 72 hours with compound; 1 % DMSO; firefly luciferase reporter; concentration that produces 50 % of replication inhibition
row,Molecule,EC50 Replicon LucneoET
1,"COc1ccc(/C=C\N2C(=S)N(c3ccc(F)cc3)C(=O)C2CC(=O)Nc2ccc(OC)cn2)cc1 (stereo not drawn) [Example 89, 2-[1-(4-Fluorophenyl)-3-[(Z)-2-(4-methoxyphenyl)ethenyl]-5-oxo-2-sulfanylideneimidazolidin-4-yl]-N-(5-methoxypyridin-2-yl)acetamide]",Non Active

# Same assay, conditions: Huh-7 cell lines containing HCV replicon Luc Neo ET; 72 hours with compound; 1 % DMSO; firefly luciferase reporter; concentration that produces 50 % of replication inhibition; read-out: EC50 Replicon LucneoET
row,Molecule,EC50 [µM]
1,COc1ccc(/C=C/N2C(=S)N(c3ccc(F)cc3)C(=O)C2CC(=O)Nc2ccc(OC)cn2)cc1 (stereo not drawn) [Example 95],< 0.5
2,COc1ccc(CCN2C(=S)N(c3ccc(F)cc3)C(=O)C2CC(=O)Nc2c(F)cc(OC)cc2F)cc1 (stereo not drawn) [Example 97],< 0.5
3,COc1ccc(NC(=O)CC2C(=O)N(c3ccc(F)cc3)C(=S)N2CCc2ccc(OCCNC(=O)OC(C)(C)C)cc2)nc1 (stereo not drawn) [Example 98],< 0.5
4,N-[4-(dimethylamino)phenyl]-2-[1-(4-fluorophenyl)-4-hydroxy-3-[2-(4-methoxyphenyl)ethyl]-5-oxo-2-sulfanylideneimidazolidin-4-yl]acetamide [Example 77],< 0.5
5,N-[4-(dimethylamino)phenyl]-2-{4-hydroxy-3-[2-(4-methoxyphenyl)ethyl]-5-oxo-1-phenyl-2-sulfanylideneimidazolidin-4-yl}acetamide [Example 70],< 0.5
